Our source for the Kd values is PMC9005747, “Application of per-Residue Energy Decomposition to Design Peptide Inhibitors of PSD95 GK Domain” (Frontiers in Molecular Biosciences, 2022).

As usually defined, the Kd is the constant that tells how readily two partners part at equilibrium.

Read-outs that look alike come from different tables or passages of the source. Non-standard residues stand in square brackets, D forms with d. Primed or numbered codes have the meaning given here. No end group written: not given here. FITC′ = fluorescein isothiocyanate label on the N-terminus; pS = N[C@@H](COP(=O)(O)O)C(=O)O

Experiment [1] addresses GK domain of PSD95. The following applies: isothermal titration calorimetry assay; ref Zhu et al., 2017; cited from earlier work. In general terms: In ITC the heat of successive injections is recorded.
Experiment [2] addresses GK domain of PSD95. The following applies: fluorescence polarization assay, cited from earlier work. The text has this:
page 6: 2. Supplementary Tables Supplementary Table 1.

In experiment [3] the target is T1, His6-tagged PSD95 GK domain (a.a. 531-713) (UniProt P31016 531-713).
T1 construct: postsynaptic density protein 95 (PSD95, encoded by DLG4), guanylate kinase (GK) domain, a.a; 531-713; In the MST assay the protein was labelled on its His tag with the RED-Tris-NTA kit; The PDB entries are cited crystal structures of PSD95 GK with peptides; also called His-GK; His-PSD95 GK; source: E. coli BL21 (DE3), purified (Ni-NTA, size-exclusion chromatography); not shown: His6, N-terminal, …
As to the kind of experiment: fluorescence polarisation; direct titration: 10 nM FITC-SAPAP constant, His-GK 0 to 20 uM; 50 mM Tris, 100 mM NaCl, pH 7.5; 384-well plates, 1-h incubation. The following applies: both partners purified.

T1 sequence (P31016 531-713): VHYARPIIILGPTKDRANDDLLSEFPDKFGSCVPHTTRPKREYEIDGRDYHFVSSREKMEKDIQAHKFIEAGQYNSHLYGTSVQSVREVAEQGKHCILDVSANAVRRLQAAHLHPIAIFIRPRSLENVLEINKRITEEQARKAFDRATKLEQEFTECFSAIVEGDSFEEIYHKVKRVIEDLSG

Take RIRREEYRRAINGQSFDLS: the Kd in experiment [1] is 660 ± 130 nM.
GRRH[pS]MENLELMKLTPEK [p-LGN]: the Kd in experiment [2] (ref Zhu et al., 2011) is 530 ± 90 nM.
As for RIRREEYRRAINGQSMKL, the Kd in experiment [1] is 1860 ± 310 nM.
In the case of AELEGGPYSPLGKDYRKAEGEREEEG [MAP1A], the Kd in experiment [2] (ref Xia et al., 2017) was 12100 ± 200 nM.
For AARRE[pS]YLKATQPSL [p-SAPAP], in experiment [1], the Kd is 80 ± 10 nM.
Take LSRVK[pS]LKKSLRQSF [p-LGL2]: the Kd in experiment [2] (ref Zhu et al., 2014) was 10200 ± 1300 nM.

B1: FITC-labeled SAPAP peptide FITC-AARRE(pS)YLKATQ (peptide)
peptide: {FITC′}-AARRE[pS]YLKATQ
notes: phosphorylated SAPAP peptide; SAPAP1 (DLGAP1, GKAP) is the member it names elsewhere; also called FITC-SAPAP; FITC-SAPAP probe; source: synthetic peptide, bought: China Peptides
In the case of B1, the Kd in experiment [3] is 4280 nM.
